From patent US5968751A, “Method for detecting the presence of protein C antibody in a fluid sample” (The Scripps Research Institute, priority 1997, dated 1999)
No end group written: not given here.

Experiments:
APC = APC (Homo sapiens, UniProt P04070); assay: Xa-1-stage coagulation assay, inhibition of APC anticoagulant activity; assay type: biochemical; set-up: Protein C consists of a 155 amino acid residue light chain and a 262 amino acid residue heavy chain; from tissue; host or cells: human plasma factor IX concentrate
Description: For testing the inhibition of the synthetic peptides on APC activity described above, Xa-1-stage coagulation assays were also performed as described. See Seegers et al., Thrombosis Res., 13:233-243 (1978); Marlar et al., supra; and Walker et al., J. Biol. Chem., 265:1484-1489 (1990). PC heavy chain-derived peptides listed below in Table 6 and PC light chain-derived peptides listed below in Table 7 were prepared as described above and separately admixed for a final concentration of 2 mM with 120 nM APC in 100 μl of TBS-BSA at pH 7.4 to form separate peptide-APC admixtures. The resulting admixtures were maintained for ten minutes at 37° C. Separate aliquots of peptides maintained under the same conditions in the absence of APC served as controls for the inhibitory effect of synthetic peptides on APC anticoagulant activity. After the maintenance period, 100 μl of NHP and 100 μl of 200 μg/ml of rabbit brain cephalin (Sigma) were admixed into each peptide admixture and maintained for 200 seconds at 37° C. to form pre-coagulation admixtures. In some experiments, Factor VIII deficient plasma (George King Bio-Medical, Inc.) was used in the place of NHP to determine the effect of Factor VIII on the assay system. Coagulation was then initiated by the admixture of 100 μl of 0.62 nM human activated Factor X (Xa) (Enzyme Research Laboratories, Southbend, Ind.) in TBS-BSA containing 30 mM CaCl2 prewarmed to 37° C. to each of the pre-coagulation admixtures.
The time for clot formation was measured by an Electra 700 Automatic Coagulation Timer (Medical Laboratory Automation, Inc., Mount Vernon, N.Y.). Each peptide's effect was determined in duplicate. The results of the inhibition of APC anticoagulant activity by synthetic peptides as measured in Xa-1-stage coagulation assays are presented in Tables 6 and 7 below with the APTT assay results and are presented as the mean values obtained with APTT assays. Data for results with PC heavy chain-derived peptides are shown in Table 6 and data for results with PC light chain-derived peptides are shown in Table 7.
The results of inhibition of APC anticoagulant activity by PC light chain-derived peptides in a Xa-1 stage coagulation assay are shown in Table 7. The assay was performed in the presence of NHP. Peptides used in the assay were prepared as described in Example 1 and are listed in Table 7 by their corresponding residue positions in native PC protein (SEQ ID NO 1). For all peptides except PC142-155 used in the Xa-1 stage assays listed in Table 7, cysteine residues in the native PC amino acid residue sequence were substituted by either serine or glycine in the synthesized peptide. This was done to prevent multiple disulfide formation and subsequent potential polymerization among peptides with multiple cysteines. […]

Factor Xa = target: T1, Factor Xa (Homo sapiens, UniProt P00742); assay: Factor Xa amidolytic activity towards chromogenic substrates; assay type: biochemical
T1 construct: purchased Enzyme Research Laboratories, Southbend, Ind
Description: To determine the effect of the APC-inhibiting peptides, PC311-325 and PC142-155, on the amidolytic activity of Factor Xa, amidolytic assays as described for APC in Example 5a3 were performed using 0.15 nM Factor Xa in the presence of increasing amounts of peptide. Peptide PC311-325 ranged in concentration from 0 to 100 μM whereas peptide PC142-155 ranged in concentration from 0 to 50 μM.
For the assay, 100 μl of 0.15 nM factor Xa, prepared in Example 5a5) were admixed with separate aliquots of either peptide prepared in TBS-BSA at pH 7.4 containing 0.02% NaN3 and 2 mM CaCl2 to form APC-peptide admixtures. After maintenance of the admixtures for 30 minutes at 37° C., 50 μl of 2.4 mM S-2222 in the same buffer were admixed to initiate the amidolytic reaction. The hydrolysis of the substrate was measured as described before.

Chain of APC (P04070 43-197 limits assumed): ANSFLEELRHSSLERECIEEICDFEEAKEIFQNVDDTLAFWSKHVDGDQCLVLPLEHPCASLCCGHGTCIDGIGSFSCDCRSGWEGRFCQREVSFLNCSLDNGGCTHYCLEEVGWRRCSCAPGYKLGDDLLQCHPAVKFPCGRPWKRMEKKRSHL
Chain of APC (P04070 212-450 limits assumed): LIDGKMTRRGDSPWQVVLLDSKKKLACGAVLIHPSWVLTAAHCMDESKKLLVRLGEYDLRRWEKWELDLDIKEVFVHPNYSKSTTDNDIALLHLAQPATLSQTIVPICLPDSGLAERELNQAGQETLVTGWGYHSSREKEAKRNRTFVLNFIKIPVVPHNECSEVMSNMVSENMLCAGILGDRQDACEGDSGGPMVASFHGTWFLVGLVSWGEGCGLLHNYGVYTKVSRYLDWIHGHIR
T1 sequence (P00742 41-179 limits assumed): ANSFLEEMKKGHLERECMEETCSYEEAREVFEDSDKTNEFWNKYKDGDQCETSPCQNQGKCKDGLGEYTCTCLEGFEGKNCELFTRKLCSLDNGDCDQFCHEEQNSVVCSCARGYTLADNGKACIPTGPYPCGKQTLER
T1 sequence (P00742 235-488 limits assumed): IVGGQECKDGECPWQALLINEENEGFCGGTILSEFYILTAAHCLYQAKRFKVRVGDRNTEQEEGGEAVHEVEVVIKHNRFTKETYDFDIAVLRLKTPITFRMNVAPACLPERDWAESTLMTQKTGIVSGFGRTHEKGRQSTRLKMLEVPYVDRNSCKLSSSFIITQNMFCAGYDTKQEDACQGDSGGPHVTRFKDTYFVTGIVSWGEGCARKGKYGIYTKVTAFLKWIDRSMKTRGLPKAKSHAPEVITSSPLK

| IC50 (APC; Xa-1-stage assay in NHP, read-out: 50% inhibition of APC anticoagulant activity) [µM] | inhibition at 500 µM (APC; final peptide concentration 500 μM, NHP, 0 = no observable effect +10%) [%] | Molecule | effect on Factor Xa amidolytic activity towards chromogenic substrates (Factor Xa) | inhibition of APC anticoagulant activity (APC; Xa-1-stage assay) |
| --- | --- | --- | --- | --- |
| 25 | 80 | CSCC[C@H](NC(=O)[C@H](CCCNC(=N)N)NC(=O)[C@H](CCCCN)NC(=O)[C@H](Cc1c[nH]c2ccccc12)NC(=O)[C@@H]1CCCN1C(=O)[C@H](CCCNC(=N)N)NC(=O)CN)C(=O)N[C@@H](CCC(=O)O)C(=O)N[C@@H](CCCCN)C(=O)N[C@@H](CCCCN)C(=O)N[C@@H](CCCNC(=N)N)C(=O)N[C@@H](CO)C(=O)N[C@@H](Cc1c[nH]cn1)C(=O)N[C@@H](CC(C)C)C(=O)N[C@@H](CS)C(N)=O [PC142-155, Gly-Arg-Pro-Trp-Lys-Arg-Met-Glu-Lys-Lys-Arg-Ser-His-Leu] |  |  |
|  |  | KRNRTFVLNFIKIPV-NH2 [PC311-325, Lys-Arg-Asn-Arg-Thr-Phe-Val-Leu-Asn-Phe-Ile-Lys-Ile-Pro-Val] | no significant effect |  |
|  |  | MHKLREGKWRPKSR [Scrambled peptide, reference compound] | no significant effect | very little if any significant inhibition |
